This is an account of results in ChEMBL document CHEMBL5528065, “Structure-Activity Relationship of a Pyrrole Based Series of PfPKG Inhibitors as Anti-Malarials” (J Med Chem, 2024).

The nature of series [1]: Half life in human liver microsomes in presence of NADPH incubated for 60 mins by LC-MS/MS analysis. It counts as ADME, Microsome. In general terms: Microsomes from liver hold many membrane-bound enzymes, among them those of drug oxidation.
Series [2] in a line: Aqueous solubility of compound in PBS at pH 7.4 incubated for 90 mins by UV spectrophotometric analysis. In kind it is physicochemical.
A short description of series [3]: Inhibition of recombinant Plasmodium falciparum PKG using FAM-PKA peptide as fluorescent substrate preincubated for 15 mins followed by substrate addition measured after 1 hr by fluorescence polarization based IMAP assay.
Series [4] in a line: Stability in CD-1 mouse liver microsomes assessed as remaining compound in absence of NADPH incubated for 60 mins by LC-MS/MS analysis. The settings on record: read-out: Stability. It counts as ADME, Microsome.
Series [5] relates to Plasmodium falciparum. The experiment in a line: Antimalarial activity against Plasmodium falciparum expressing PKG T618Q mutant infected in human erythrocytes assessed as reduction in parasitemia incubated for 72 hrs by SYBR green I and Mitotracker deep red dye based flow cytometric analysis. In kind it is functional, organism-based. In general terms: In flow cytometry, cells or beads pass a laser one at a time.

For another series, the system named is Plasmodium berghei. Nature of the series: Antimalarial activity against Plasmodium berghei sporozoites expressing Luciferase infected in human HepG2 cells assessed as reduction in parasite growth incubated for 48 hrs by ONE-Glo luciferase assay. In kind it is functional, organism-based.
The target of another series is Cytochrome P450 2D6 (Homo sapiens, UniProt P10635). The experiment in a line: Inhibition of human CYP2D6 expressed in baculovirus infected insect cells using AMMC as substrate incubated for 40 mins in presence of NADPH by UPLC-MS analysis. In kind it is ADME.
Cytochrome P450 2D6, sequence (P10635 whole entry): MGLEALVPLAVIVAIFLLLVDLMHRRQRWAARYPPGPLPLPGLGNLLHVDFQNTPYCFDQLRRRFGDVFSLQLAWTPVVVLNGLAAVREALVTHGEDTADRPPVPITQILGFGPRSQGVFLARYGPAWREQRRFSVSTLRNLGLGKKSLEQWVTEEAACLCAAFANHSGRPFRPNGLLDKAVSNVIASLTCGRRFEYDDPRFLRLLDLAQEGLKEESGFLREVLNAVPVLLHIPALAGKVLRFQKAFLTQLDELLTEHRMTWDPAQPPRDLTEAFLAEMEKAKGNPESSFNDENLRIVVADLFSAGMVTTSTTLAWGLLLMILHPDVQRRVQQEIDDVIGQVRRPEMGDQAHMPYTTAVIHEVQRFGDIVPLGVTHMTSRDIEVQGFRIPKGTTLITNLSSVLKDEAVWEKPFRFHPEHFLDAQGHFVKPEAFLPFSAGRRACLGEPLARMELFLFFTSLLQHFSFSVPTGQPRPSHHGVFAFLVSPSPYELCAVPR
For another series, the target named is Cytochrome P450 3A4 (Homo sapiens, UniProt P08684). Nature of the series: Inhibition of human CYP3A4 expressed in baculovirus infected insect cells using midazolam as substrate incubated for 30 mins in presence of NADPH by UPLC-MS analysis. In kind it is ADME.
Cytochrome P450 3A4, sequence (P08684 whole entry): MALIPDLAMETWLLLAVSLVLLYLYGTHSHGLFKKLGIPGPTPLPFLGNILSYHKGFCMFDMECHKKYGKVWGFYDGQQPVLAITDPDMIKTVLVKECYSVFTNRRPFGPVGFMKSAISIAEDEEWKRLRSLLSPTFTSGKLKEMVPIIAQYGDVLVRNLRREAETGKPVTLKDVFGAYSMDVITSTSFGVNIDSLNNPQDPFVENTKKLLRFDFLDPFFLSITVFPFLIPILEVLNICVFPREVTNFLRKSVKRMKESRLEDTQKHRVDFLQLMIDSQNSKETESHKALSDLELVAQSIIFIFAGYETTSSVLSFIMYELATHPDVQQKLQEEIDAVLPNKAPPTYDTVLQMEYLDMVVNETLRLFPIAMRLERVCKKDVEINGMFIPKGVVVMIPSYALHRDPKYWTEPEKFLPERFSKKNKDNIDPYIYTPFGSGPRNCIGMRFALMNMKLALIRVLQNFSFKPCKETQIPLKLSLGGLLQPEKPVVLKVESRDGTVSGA
The species named for a further series is Homo sapiens. Nature of the series: Inhibition of human PKG using FAM-IP3R peptide as fluorescent substrate at 10 uM preincubated for 15 mins followed by substrate addition measured after 1 hr by fluorescence polarization based IMAP assay relative to control. To be noted: time 75.0 min. On the technique in general: Fluorescence polarisation rises when a labelled molecule tumbles more slowly, as on binding a larger partner.

Series [6] in a line: Efflux ratio of apparent permeability from basolateral to apical side over apical to basolateral side in human Caco-2 cells incubated for 120 mins by LC-MS/MS analysis. It counts as ADME, cell-based.
Series [7] is described as follows: Intrinsic clearance in CD-1 mouse liver microsomes in presence of NADPH incubated for 60 mins by LC-MS/MS analysis. It counts as ADME, Microsome. To be noted: read-out: CLH.
Another series addresses Cytochrome P450 2C9 (Homo sapiens, UniProt P11712). Nature of the series: Inhibition of human CYP2C9 expressed in baculovirus infected insect cells using MFC as substrate incubated for 30 mins in presence of NADPH by UPLC-MS analysis. It counts as ADME.
The nature of series [8]: Half life in CD-1 mouse liver microsomes in presence of NADPH incubated for 60 mins by LC-MS/MS analysis. It counts as ADME, Microsome.
The target of series [9] is Voltage-gated inwardly rectifying potassium channel KCNH2 (Homo sapiens, UniProt Q12809). Nature of the series: Inhibition of hERG expressed in HEK293 cells incubated for 30 mins by FluxOR dye based fluorescence analysis. In kind it is toxicity, cell-based.
Voltage-gated inwardly rectifying potassium channel KCNH2, sequence (Q12809 whole entry): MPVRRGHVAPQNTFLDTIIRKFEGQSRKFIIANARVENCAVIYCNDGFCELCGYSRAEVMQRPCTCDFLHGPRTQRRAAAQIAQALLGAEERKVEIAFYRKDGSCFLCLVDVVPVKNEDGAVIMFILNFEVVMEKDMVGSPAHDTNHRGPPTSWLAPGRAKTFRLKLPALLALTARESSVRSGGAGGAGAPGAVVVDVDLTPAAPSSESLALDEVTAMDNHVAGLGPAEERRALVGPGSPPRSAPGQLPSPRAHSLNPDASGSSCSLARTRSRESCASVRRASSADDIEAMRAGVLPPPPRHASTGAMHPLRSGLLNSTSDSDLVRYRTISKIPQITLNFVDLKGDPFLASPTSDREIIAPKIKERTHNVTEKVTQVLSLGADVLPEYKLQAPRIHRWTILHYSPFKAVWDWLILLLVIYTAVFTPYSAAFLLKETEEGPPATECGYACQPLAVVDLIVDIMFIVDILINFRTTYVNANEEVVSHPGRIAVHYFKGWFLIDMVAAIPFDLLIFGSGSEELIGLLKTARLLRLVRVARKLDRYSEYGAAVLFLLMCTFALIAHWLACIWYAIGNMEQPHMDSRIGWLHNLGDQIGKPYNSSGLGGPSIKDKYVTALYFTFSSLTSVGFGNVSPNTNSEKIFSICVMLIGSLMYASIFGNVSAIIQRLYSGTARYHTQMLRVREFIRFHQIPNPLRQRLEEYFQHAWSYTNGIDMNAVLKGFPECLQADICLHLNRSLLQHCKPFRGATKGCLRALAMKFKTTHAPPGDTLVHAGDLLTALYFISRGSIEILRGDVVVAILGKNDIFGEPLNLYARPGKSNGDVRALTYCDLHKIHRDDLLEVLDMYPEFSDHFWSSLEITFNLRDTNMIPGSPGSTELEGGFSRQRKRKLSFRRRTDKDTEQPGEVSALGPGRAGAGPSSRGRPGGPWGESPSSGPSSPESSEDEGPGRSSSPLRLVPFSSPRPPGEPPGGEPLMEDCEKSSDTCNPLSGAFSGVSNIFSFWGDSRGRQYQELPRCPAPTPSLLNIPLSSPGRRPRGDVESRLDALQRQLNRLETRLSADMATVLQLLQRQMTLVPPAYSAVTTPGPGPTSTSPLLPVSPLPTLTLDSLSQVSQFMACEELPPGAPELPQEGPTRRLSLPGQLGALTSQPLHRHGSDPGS
Series [10] concerns Plasmodium falciparum. The experiment in a line: Antimalarial activity against drug-sensitive Plasmodium falciparum 3D7 infected in human erythrocytes assessed as reduction in parasitemia incubated for 72 hrs by SYBR green I and Mitotracker deep red dye based flow cytometric analysis. It counts as functional, organism-based.
A short description of series [11]: Protein binding in CD-1 mouse liver microsomes assessed as unbound fraction incubated for 17 hrs by LC-MS analysis. In kind it is ADME, Microsome.
Series [12] in a line: Stability in human liver microsomes assessed as remaining compound in absence of NADPH incubated for 60 mins by LC-MS/MS analysis. In kind it is ADME, Microsome. To be noted: read-out: Stability.
A short description of series [13]: Intrinsic clearance in human liver microsomes in presence of NADPH incubated for 60 mins by LC-MS/MS analysis. It counts as ADME, Microsome. To be noted: read-out: CLH.
The nature of series [14]: Apparent permeability in human Caco-2 cells incubated for 120 mins by LC-MS/MS analysis. It counts as ADME, cell-based.
Series [15] can be described thus: Protein binding in C57BL/6 mouse plasma assessed as unbound fraction incubated for 22 hrs by LC-MS/MS analysis. It counts as ADME, cell-free.

As usually defined, the half-life is how long it takes for the measured level to halve. The term solubility denotes the dissolved amount per volume that the medium holds. In general, IC50 refers to the concentration needed to halve the response being measured. What is called pIC50 is the IC50 on a negative log10 scale, so that one unit is a factor of ten. What is called EC50 is the concentration giving half of the maximal effect. For orientation: inhibition means the relative decrease from the control value, in per cent. One may read the efflux ratio as the permeability from basolateral to apical divided by that in the opposite direction, in the common usage. Broadly, the fraction unbound is the share of the substance not bound to proteins or other matrix. Broadly, the Papp is a coefficient for how fast a substance crosses the barrier.

Cytochrome P450 2C9, sequence (P11712 whole entry): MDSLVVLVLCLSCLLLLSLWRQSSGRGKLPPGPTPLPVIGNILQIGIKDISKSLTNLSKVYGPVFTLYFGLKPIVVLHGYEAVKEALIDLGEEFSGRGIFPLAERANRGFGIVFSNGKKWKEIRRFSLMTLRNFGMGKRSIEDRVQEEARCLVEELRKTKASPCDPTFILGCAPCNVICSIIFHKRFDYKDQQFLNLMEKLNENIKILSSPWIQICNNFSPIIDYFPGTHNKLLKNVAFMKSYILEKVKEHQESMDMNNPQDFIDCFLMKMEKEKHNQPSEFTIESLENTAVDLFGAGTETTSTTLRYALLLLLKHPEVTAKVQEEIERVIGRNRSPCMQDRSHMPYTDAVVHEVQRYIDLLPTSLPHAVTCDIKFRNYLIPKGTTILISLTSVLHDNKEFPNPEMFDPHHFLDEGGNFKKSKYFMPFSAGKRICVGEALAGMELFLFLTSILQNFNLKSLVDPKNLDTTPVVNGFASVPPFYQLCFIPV

On to `C[C@@H]1CN(C)CC[C@@H]1c1cc(-c2ccncc2)c(-c2ccc(F)cc2)[nH]1.Cl.Cl`, for which the half-life in [1] is 35.7 min; in [8], > 60 min. Moreover, in series [2], the solubility at 1.5 h amounted to 181 µM. For the same compound, the IC50 is 13 nM in series [3]; > 10000 nM at Cytochrome P450 2D6; > 10000 nM at Cytochrome P450 3A4; > 10000 nM on Cytochrome P450 2C9; > 10000 nM in series [9]. The negative-log IC50 (pIC50) in [3] is recorded as 7.89. The remaining at 1 h is 103% in series [4] and 99% in [12]. Moreover, the EC50 in the series with Plasmodium falciparum [5] (Plasmodium falciparum, 72 h) stood at 760 nM; in the series with Plasmodium berghei (Plasmodium berghei, HepG2, 48 h) it was 70 nM; with Plasmodium falciparum [10] (Plasmodium falciparum, 3D7, 72 h), 50 nM. Besides, the inhibition in the series filed under Homo sapiens is -0.3%. Also, the efflux ratio at 2 h in series [6] came to 1. Besides, the values for the microsomal CLint in [7] and in [13] were < 23 µL/min/mg and 38.8 µL/min/mg, respectively. Moreover, the fraction unbound at 17 h in series [11] was 0.502. For the same compound, in [14], the Papp at 2 h was 20.1 ×10⁻⁶ cm/s. In addition, the fraction unbound at 22 h in [15] stood at 0.155.

Turning to `C[C@@H]1CN(C)CCC1c1cc(-c2ccncc2)c(-c2ccc(F)cc2)[nH]1.Cl.Cl` (single isomer, unassigned), the figures for the half-life in series [1] and in series [8] were > 60 min and 31.2 min, respectively. In series [2], this compound registered a solubility at 1.5 h of 176 µM. For the same compound, the IC50 in series [3] was 9 nM; at Cytochrome P450 2D6, 5740 nM; at Cytochrome P450 3A4 it was 7480 nM; at Cytochrome P450 2C9, > 10000 nM; in [9], > 10000 nM. Further, the pIC50 in [3] is listed as 8.05. Moreover, the remaining at 1 h in [4] was 103%; in series [12], 98%. For the same compound, the EC50 worked out at 1220 nM in the series on Plasmodium falciparum [5], 60 nM with Plasmodium berghei and 50 nM in the series on Plasmodium falciparum [10]. Moreover, the inhibition in the series listed under Homo sapiens was found to be 45%. In addition, the efflux ratio at 2 h in series [6] came to 1.59. Also, the results for the microsomal CLint in series [7] and in series [13] were 44.5 µL/min/mg and < 23 µL/min/mg, respectively. In addition, in [11], the fraction unbound at 17 h came to 0.518. The Papp at 2 h in series [14] was 22.1 ×10⁻⁶ cm/s. In series [15], the fraction unbound at 22 h was 0.119.
